Results taken from patent US9695155B2, “Herbicidal substituted pyrimidinyloxy benzene compounds” (E. I. DU PONT DE NEMOURS AND COMPANY, priority 2013, dated 2017).

Columns and labels:
johnsongrass = assay: Test E preemergence; type: in vivo, Sorghum halepense; conditions: for Johnsongrass plant response rating: scale 0 to 100 (0 no effect, 100 complete control); for Plant response rating, Johnsongrass: 125 g ai/ha, scale 0 to 100, 0 no effect, 100 complete control
Text: (§1) Seeds of plant species selected from corn (Zea mays), soybean (Glycine max), velvetleaf (Abutilon theophrasti), lambsquarters (Chenopodium album), wild poinsettia (Euphorbia heterophylla), palmer pigweed (Amaranthus palmeri), waterhemp (common waterhemp, Amaranthus rudis), surinam grass (Brachiaria decumbens), large (Lg) crabgrass (Digitaria sanguinalis), Brazilian crabgrass (Digitaria horizontalis), fall panicum (Panicum dichotomiflorum), giant foxtail (Setaria faberii), green foxtail (Setaria viridis), goosegrass (Eleusine indica), johnsongrass (Sorghum halepense), ragweed (common ragweed, Ambrosia elatior), barnyardgrass (Echinochloa crus-galli), sandbur (southern sandbur, Cenchrus echinatus), arrowleaf sida (Sida rhombifolia), Italian ryegrass (Lolium multiflorum), dayflower (Virginia (VA) dayflower, Commelina virginica), field bindweed (Convolvulus arvensis), morningglory (Ipomoea coccinea), nightshade (eastern black nightshade, Solanum ptycanthum), kochia (Kochia scoparia), yellow nutsedge (Cyperus esculentus), cocklebur (common cocklebur, Xanthium strumarium), smartweed (ladysthumb smartweed, and hairy beggarticks (Bidens pilosa), were planted into a silt loam soil and treated preemergence with test chemicals formulated in a non-phytotoxic solvent mixture which included a surfactant.
(§2) At the same time, plants from these crop and weed species and also horseweed (Canada horseweed, Conyza canadensis), waterhemp_RES1, (ALS & Triazine resistant common waterhemp, Amaranthus rudis), and waterhemp_RES2, (ALS & HPPD resistant common waterhemp, Amaranthus rudis) were planted in pots containing Redi-Earth® planting medium (Scotts Company, 14111 Scottslawn Road, Marysville, Ohio 43041) comprising spaghnum peat moss, vermiculite, wetting agent and starter nutrients were treated with postemergence applications of test chemicals formulated in the same manner. Plants ranged in height from 2 to 18 cm for postemergence treatments (1- to 4-leaf stage). Treated plants and controls were maintained in a greenhouse for 14 to 21 days, after which time all species were compared to controls and visually evaluated. Plant response ratings, summarized in Table E, are based on a scale of 0 to 100 where 0 is no effect and 100 is complete control. A dash (-) response means no test result.

morningglory = assay: Test E preemergence; type: in vivo, Ipomoea coccinea; conditions: for Morningglory plant response rating: scale 0 to 100 (0 no effect, 100 complete control); for Plant response rating, Morningglory: 125 g ai/ha, scale 0 to 100, 0 no effect, 100 complete control
How it was run: (§3)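 Compound in a non-phytotoxic solvent mixture with surfactant was applied preemergence to seeds in silt loam soil, or postemergence to plants 2 to 18 cm tall grown in peat-based potting medium. Plants were kept in a greenhouse for 14 to 21 days, then rated visually against untreated controls on a 0 (no effect) to 100 (complete control) scale.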

palmer pigweed = assay: Test E preemergence; type: in vivo, Amaranthus palmeri; conditions: for Pigweed, Palmer plant response rating: scale 0 to 100 (0 no effect, 100 complete control); for Plant response rating, Pigweed, Palmer: 125 g ai/ha, scale 0 to 100, 0 no effect, 100 complete control
Text: as §1, §2

blackgrass = assay: Test A postemergence; type: in vivo, Alopecurus myosuroides
How it was run: (§4)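 Greenhouse pot test, loam/sand soil. Formulation: non-phytotoxic solvent mix plus surfactant. Pre: directed spray onto soil after sowing. Post: plants at 1–2 leaf, 2–10 cm. Rated visually vs untreated controls at ~10 d, 0 (no effect) to 100 (complete control).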

kochia = assay: Test E preemergence; type: in vivo, Kochia scoparia; conditions: for Kochia plant response rating: scale 0 to 100 (0 no effect, 100 complete control); for Plant response rating, Kochia: 125 g ai/ha, scale 0 to 100, 0 no effect, 100 complete control
Text: as §1, §2

Brazilian crabgrass = assay: Test E preemergence; type: in vivo, Digitaria horizontalis; conditions: for Crabgrass, Brazil plant response rating: scale 0 to 100 (0 no effect, 100 complete control); for Plant response rating, Crabgrass, Brazil: 125 g ai/ha, scale 0 to 100, 0 no effect, 100 complete control
Text: as §1, §2

ragweed = assay: Test E preemergence; type: in vivo, Ambrosia elatior; conditions: for Ragweed plant response rating: scale 0 to 100 (0 no effect, 100 complete control); for Plant response rating, Ragweed: 125 g ai/ha, scale 0 to 100, 0 no effect, 100 complete control
How it was run: as §3

Italian ryegrass = assay: Test A preemergence; type: in vivo, Lolium multiflorum; conditions: for Ryegrass, Italian plant response rating: 500 g ai/ha
How it was run: as §4

[1] = 125 g ai/ha, 0 to 100 scale where 0 is no effect and 100 is complete control
[2] = 500 g ai/ha, 0 to 100 scale where 0 is no effect and 100 is complete control
[3] = 31 g ai/ha, 0 to 100 scale, 0 no effect, 100 complete control
[4] = 31 g ai/ha, 0 to 100 scale where 0 is no effect and 100 is complete control, visual, approximately 10 days

Row | Structure (SMILES) | Johnsongrass plant response rating (johnsongrass; 31 g ai/ha) | Johnsongrass plant response rating (johnsongrass; 62 g ai/ha) | Plant response rating, Johnsongrass (johnsongrass) | Morningglory plant response rating (morningglory; 31 g ai/ha) | Morningglory plant response rating (morningglory; 62 g ai/ha) | Plant response rating, Morningglory (morningglory) | Pigweed, Palmer plant response rating (palmer pigweed; 31 g ai/ha) | Pigweed, Palmer plant response rating (palmer pigweed; 62 g ai/ha) | Plant response rating, Pigweed, Palmer (palmer pigweed) | Kochia plant response rating (kochia; 31 g ai/ha) | Kochia plant response rating (kochia; 62 g ai/ha) | Plant response rating, Kochia (kochia) | Crabgrass, Brazil plant response rating (Brazilian crabgrass; 16 g ai/ha) | Crabgrass, Brazil plant response rating (Brazilian crabgrass; 31 g ai/ha) | Crabgrass, Brazil plant response rating (Brazilian crabgrass; 62 g ai/ha) | Plant response rating, Crabgrass, Brazil (Brazilian crabgrass) | Ragweed plant response rating (ragweed; 31 g ai/ha) | Ragweed plant response rating (ragweed; 62 g ai/ha) | Plant response rating, Ragweed (ragweed) | Plant response rating, Ryegrass, Italian (Italian ryegrass; [1]) | further results
1 | N#Cc1cccc(Oc2ncc(Br)cn2)c1-n1cc(I)cn1 [Compound 88] | 0 | 15 | 15 | 0 | 10 | 15 | 0 | 0 | 75 | 0 | 35 | 50 | 0 | 0 | 60 | 60 | 0 | 0 | 65 | 20 | Johnsongrass plant response rating (johnsongrass; 16 g ai/ha): 0; Morningglory plant response rating (morningglory; 16 g ai/ha): 0; Pigweed, Palmer plant response rating (palmer pigweed; 16 g ai/ha): 0; Plant response rating, Blackgrass (blackgrass; [1]): 70; Plant response rating, Blackgrass (blackgrass; [2]): 100; Kochia plant response rating (kochia; 16 g ai/ha): 0; Ragweed plant response rating (ragweed; 16 g ai/ha): 0; Ryegrass, Italian plant response rating (Italian ryegrass; 0 to 100 scale, 0 no effect, 100 complete control, approx. 10 days): 30
2 | FC(F)(F)COc1cnn(-c2ccccc2Oc2ncc(Cl)cn2)c1 [Compound 138, 5-chloro-2-[2-[4-(2,2,2-trifluoroethoxy)-1H-pyrazol-1-yl]phenoxy]pyrimidine] | 0 | 35 | 40 | 0 | 0 | 40 | 70 | 75 | 70 | 75 | 90 | 100 | 0 | 40 | 90 | 98 | 0 | 0 | 0 | 0 | Johnsongrass plant response rating (johnsongrass; 16 g ai/ha): 0; Morningglory plant response rating (morningglory; 16 g ai/ha): 0; Pigweed, Palmer plant response rating (palmer pigweed; 16 g ai/ha): 0; Blackgrass plant response rating (blackgrass; [1]): 50; Plant response rating, Blackgrass (blackgrass; [2]): 90; Kochia plant response rating (kochia; 16 g ai/ha): 60; Ragweed plant response rating (ragweed; 16 g ai/ha): 0; Ryegrass, Italian plant response rating (Italian ryegrass; 0 to 100 scale where 0 is no effect and 100 is complete control): 50
3 | N#Cc1cnn(-c2c(CF)cccc2Oc2ncc(F)cn2)c1 [Compound 151] | 0 | 35 | 70 | 0 | 0 | 0 | 100 | 100 | 100 | 80 | 90 | 100 | 0 | 35 | 70 | 75 | 90 | 95 | 100 | 0 | Plant response rating, Blackgrass (blackgrass; [3]): 20; Blackgrass plant response rating (blackgrass; [1]): 50; Plant response rating, Ryegrass, Italian (Italian ryegrass; [4]): 0
4 | FCc1cccc(Oc2ncc(Cl)cn2)c1-n1cc(Cl)cn1 [Compound 250] | 0 | 0 | 50 | 0 | 0 | 20 | 0 | 0 | 100 | 0 | 0 | 98 | 0 | 0 | 5 | 98 | 0 | 0 | 0 |  | Plant response rating, Blackgrass (blackgrass; [3]): 70; Plant response rating, Blackgrass (blackgrass; 125 g ai/ha, 0 to 100 scale, 0 no effect, 100 complete control): 100; Plant response rating, Ryegrass, Italian (Italian ryegrass; [4]): 0; Ryegrass, Italian plant response rating (0 to 100 scale) (Italian ryegrass; 125 g ai/ha): 0
